Paper PMC9655717, “New Molecules of Diterpene Origin with Inhibitory Properties toward α-Glucosidase” (International Journal of Molecular Sciences, 2022)
Converted amounts (≈) assume the structure as drawn.

Columns and labels:
[1] = target: T1, yeast α-GLy (α-glucosidase, Sigma G0660) (Saccharomyces cerevisiae, UniProt P53341); test: biochemical; type: biochemical; conditions: IC50 ± SE, α-glucosidase inhibition, yeast α-glucosidase, 37°C, pH 6.8
T1 construct: purchased Sigma G0660
Procedure: S1. Materials and Methods […]
glucosidase inhibition assay. α-Glucosidase enzyme inhibition assay was carried out in a 96-well microplate. The method’s principle based on the hydrolyzed reaction of 4-nitrophenyl-α-D-glucopiranoside with α-glucosidase enzyme into yellow 4- […]
p-Nitrophenyl α-D-Glucoside a- Gl ucosidas e α-D-Glucose + p- Nitrophenol α-Glucosidase inhibitory activity assay was performed following the modified method of Pistia Brueggeman and Hollingsworth with slight modification. Quinopimaric […]
concentrations of 256, 64, 16, 4 and 1 µg/mL. In a 96-well plate, a reaction mixture containing 20 μL of phosphate buffer (100 mM; pH 6.8), 20 μL of α-glucosidase (0.3 U/mL, Sigma G0660) (this concentration was determined by a series of α-glucosidase […]
linearity between the enzyme concentration and the absorbance of yellow color mixture after reaction which was approximately 5-fold higher than the back ground and at least […]
concentrations was pre-incubated for 10 min at 37°C. Then 20 μL of […] p-nitrophenyl α-D-glucopyranoside (Sigma N1377) was added to the mixture as a substrate. After further incubation at 37°C for 30 min, the reaction was stopped by adding 80 μL of 0.1 […]
solution were prepared using the phosphate buffer […]; pH 6.8. […]
as a positive control and water as negative control. The yellow color produced was quantitated by colorimetric analysis and reading the absorbance at 410 nm. Each experiment was performed in triplicates, along with appropriate blanks. The solvent DMSO was use as negative control to evaluate its effect on α-glucosidase activity. […]
or substrate in negative control. Back ground was determined by volume of buffer as […]
The % inhibition has been obtained using the formula:
% inhibition = {Absorbance (control) –Absorbance (sample)}/Absorbance (control) IC50 value is defined as the concentration of samples inhibiting 50% of α-glucosidase activity under the stated assay conditions. […]

MTT cytotoxicity assay = conditions: human
Procedure: The cytotoxic activity of compounds was evaluated against four cancer cell lines KB, Hep-G2, Lu-1 and MCF-7, using colorimetric MTT assay. […]
MTT assay was used to determine the cytotoxic activity of compounds with human cancer cell lines acquired from the American Type Culture Collection (ATCC): epidermoid carcinoma (KB, ATCC number CCL-17), hepatocellular carcinoma (HepG2, ATCC number HB-8065), lung adenocarcinoma LU-1 (ATCC number HTB - 57TM), breast adenocarcinoma MCF-7 (ATCC number HTB - 22TM. Cells were cultured in medium DMEM supplemented with 10% Fetal bovine serum (FBS), 1% Penicillin and Streptomycin and 1% L-glutamine, under a humidified atmosphere of 5% CO2 at 37°C.
Compounds were dissolved in DMSO at 40 mg/mL and a series of dilutions for each compound was prepared to final concentrations of 256, 64, 16, 4 and 1 μg/mL. Cells were separated with trypsin and seeded in each well with 3 x10^4 cells per ml and were treated with sample different concentrations on 96-well plates. Untreated cells represented the controls. After 72h of treatment, an MTT solution (10 μl, 5 mg/mL) of phosphate buffer was added to each well for 4 h until intracellular purple formazan crystals are visible. Remove MTT and add DMSO solution (100 μL). The optical density of the solution was determined by Epoch™ Microplate Spectrophotometer at 540 nm. The inhibition ratio was calculated based on the optical densities from the three replicate […]
(§1) are evaluated to have cytotoxic activity.

[2] = DPPH radical scavenging assay; conditions: DPPH 0.1 mM in methanol, 25°C, 30 min
Procedure: DPPH radical scavenging assay as described by Ha. The hydrogen atom donating ability of the plant extractives was determined by the decolorization of methanol solution of 2,2-diphenyl-1-picrylhydrazyl (DPPH). DPPH produces purple color in methanol solution and fades to shades of yellow color in the presence of antioxidants. […]
DPPH (0.1 mM) was diluted in methanol. 200 μL of this solution was added to 1.3 μL of various concentrations of compounds in DMSO (256.0, 64.0, 16.0, and 4.0 μg/mL). The mixture was performed by a 96-well plate at 25 °C in 30 min. Then, absorbance was determined by Epoch™ Microplate Spectrophotometer (at 517 nm). The percentage of DPPH quenching activity was computed by the following formula:
Inhibitory percentage SC (%) = [(Ao - A1)/Ao] × 100. where AO was defined as the absorbance of control reaction, and A1 represented for the absorbance in the presence of test or standard sample. Each experiment was repeated three times. Quercetin was used as a reference compound. […]

[3] = tested on: Pseudomonas aeruginosa (ATCC 15442); test: Antimicrobial broth microdilution; type: cell-based; conditions: ATCC15442, P. aeruginosa
Procedure: (§2) Table S2. The result of antimicrobial tests of compounds 38, 45, 48 and 50.
(§3) Gram (+) strains Gram (-) strains Fungi
(§4) Compound Values (µg/ml) S. aureus B. L. S. E. P. C. subtilis fermentum enterica coli aeruginosa albican
(§5) The antimicrobial activity was determined by broth microdilution method as reported by. Broth dilution testing is one of the common methods used for determination of the MICs and IC50. The compounds are examined for visible bacterial growth as evidenced by turbidity. […]
(§6) S1.5. In vitro antimicrobial activity study of compounds 38, 45, 48 and 50 The Gram-positive bacteria: Bacillus subtilis (ATCC 6633), Lactobacillus fermentum (N4), Staphylococcus aureus (ATCC 13709); Gram -negative bacteria: Escherichia coli (ATCC 25922), Pseudomonas aeruginosa (ATCC 15442), Salmonella enterica; Yeast: Candida albicans (ATCC 10231) were obtained from American Type Culture Collection. The bacterial […]
(§7) Sabourand 2% dextrose broth, were purchased from Merck. […]
(§8) remaining at –80 0 C. Before assay, they were activated by culture medium and, adjusted the concentration to 5x10^5 CFU/mL. 10 μL of each concentration of each test […]
(§9) further incubated at 37 °C within 16-24h. The experiment was triplicated. Positive […]
(§10) medium without bacteria as a negative control. Ampicillin was used as a reference […]
(§11) inhibiting 50% the visible growth of the tested microorganisms. MIC, IC50 values are typically expressed as molar concentration. […]
(§12) treated with sample different concentrations on 96-well plates. Untreated cells represented the controls. […]
(§13) crystals are visible. Remove MTT and add DMSO solution (100 μL). The optical density […]
as §1

[4] = tested on: Lactobacillus fermentum (N4); test: Antimicrobial broth microdilution; type: cell-based; conditions: L. fermentum
Procedure: as §2, §3, §4, §5, §6, §7, §8, §9, §10, §11, §12, §13, §1

[5] = tested on: Staphylococcus aureus (ATCC 13709); test: Antimicrobial broth microdilution; type: cell-based; conditions: ATCC13709, S. aureus
Procedure: as §2, §3, §4, §5, §6, §7, §8, §9, §10, §11, §12, §13, §1

[6] = tested on: Escherichia coli (ATCC 25922); test: Antimicrobial broth microdilution; type: cell-based; conditions: ATCC25922, E. coli
Procedure: as §2, §3, §4, §5, §6, §7, §8, §9, §10, §11, §12, §13, §1

[7] = tested on: Bacillus subtilis (ATCC 6633); test: Antimicrobial broth microdilution; type: cell-based; conditions: ATCC6633, B. subtilis
Procedure: as §2, §3, §4, §5, §6, §7, §8, §9, §10, §11, §12, §13, §1

Salmonella enterica = test: Antimicrobial broth microdilution; type: cell-based; conditions: S. enterica
Procedure: as §2, §3, §4, §5, §6, §7, §8, §9, §10, §11, §12, §13, §1

[8] = tested on: Candida albicans (ATCC 10231); test: Antimicrobial broth microdilution; type: cell-based; conditions: ATCC10231, C. albican
Procedure: as §2, §3, §4, §5, §6, §7, §8, §9, §10, §11, §12, §13, §1

[9] = Hep-G2 hepatocellular carcinoma cells (ATCC HB-8065)
[10] = KB epidermoid carcinoma cells (ATCC CCL-17)
[11] = Lu-1 lung adenocarcinoma cells (ATCC HTB-57)
[12] = MCF-7 breast adenocarcinoma cells (ATCC HTB-22)

T1 sequence (P53341 whole entry): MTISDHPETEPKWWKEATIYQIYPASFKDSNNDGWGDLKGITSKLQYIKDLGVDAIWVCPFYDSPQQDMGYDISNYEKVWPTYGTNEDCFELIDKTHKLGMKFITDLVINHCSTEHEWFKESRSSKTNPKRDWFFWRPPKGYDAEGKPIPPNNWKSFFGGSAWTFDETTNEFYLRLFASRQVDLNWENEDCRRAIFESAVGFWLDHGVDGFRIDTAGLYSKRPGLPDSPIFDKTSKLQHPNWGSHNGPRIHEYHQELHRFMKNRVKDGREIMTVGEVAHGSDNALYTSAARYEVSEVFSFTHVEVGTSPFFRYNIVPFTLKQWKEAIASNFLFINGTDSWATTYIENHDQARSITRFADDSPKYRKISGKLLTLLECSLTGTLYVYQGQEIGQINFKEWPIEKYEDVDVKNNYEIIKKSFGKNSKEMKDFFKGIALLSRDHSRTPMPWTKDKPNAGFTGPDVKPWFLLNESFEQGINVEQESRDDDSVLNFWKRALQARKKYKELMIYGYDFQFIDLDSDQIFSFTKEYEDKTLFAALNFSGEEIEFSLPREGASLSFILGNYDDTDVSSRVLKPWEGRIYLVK

SMILES | IC50 [1] | melting point | IC50 at 72 h (MTT cytotoxicity assay; [9]) | IC50 at 72 h (MTT cytotoxicity assay; [10]) | IC50 at 72 h (MTT cytotoxicity assay; [11]) | IC50 at 72 h (MTT cytotoxicity assay; [12]) | IC50 values, antioxidant test (DPPH) [2] | IC50 [3] | MIC [3] | IC50 [4] | MIC [4] | IC50 [5] | MIC [5] | IC50 [6] | MIC [6] | IC50 [7] | MIC [7] | IC50 (Salmonella enterica) | MIC (Salmonella enterica) | IC50 [8] | further results
COC(=O)c1c(C)[nH]c2c3c(c(OCCC#N)cc12)C1CC2C3(C=C1C(C)C)CCC1C(C)(C(=O)OC)CCCC12C (stereo not shown) [Compound 47, Methyl 1-(8′-cyanoethoxy)-13-isopropyl-1′-(ethoxycarbonyl)-7,10a,2′-trimethyl-5,6,6b,7,8,9,10,10a,10b,11,12,13-dodecahydro-12,4b-ethenophenanthro [2,1-g]indole-7-carboxylate] | 4950 ± 250 nM | 127 to 129 °C |  |  |  |  |  |  |  |  |  |  |  |  |  |  |  |  |  |  | 
C#CCOC(=O)C1(C)CCCC2(C)C1CCC13C=C(C(C)C)C(CC12)C1=C3C(=O)C=CC1=O (stereo not shown) [Compound 48, Propynyl 13-isopropyl-7,10a-dimethyl-1,4-di oxo-4,5,6,6a,7,8,9,10,10a,10b,11,12-dodecahydro-1H-4b,12-ethenochrysene-7-carboxylate] | 680 ± 45 nM | 85 to 89 °C | 46 ± 0.8 µg/mL (≈ 103 µM) | 30.5 ± 0.7 µg/mL (≈ 68.3 µM) | 10.2 ± 0.18 µg/mL (≈ 22.7 µM) | 39.2 ± 0.78 µg/mL (≈ 87.9 µM) | 177.45 ± 3.5 µg/mL (≈ 397 µM) | > 256 µg/mL | > 256 µg/mL | 43.5 ± 2.52 µg/mL (≈ 97.5 µM) | 256 µg/mL (≈ 573 µM) | 8.29 ± 0.58 µg/mL (≈ 18.6 µM) | 64 µg/mL (≈ 143 µM) | > 256 µg/mL | > 256 µg/mL | 45 ± 2.18 µg/mL (≈ 101 µM) | 256 µg/mL (≈ 573 µM) | > 256 µg/mL | > 256 µg/mL | > 256 µg/mL | MIC [8]: > 256 µg/mL
CC(C)C1=CC23CCC4C(C)(C(=O)O)CCCC4(C)C2CC1c1c(O)ccc(O)c13 (stereo not shown) [Compound 49] | > 255000 nM |  |  |  |  |  |  |  |  |  |  |  |  |  |  |  |  |  |  |  | 
CC(C)C1=CC23CCC4C(C)(C(=O)O)CCCC4(C)C2CC1c1c(OCCC#N)ccc(OCCC#N)c13 (stereo not shown) [Compound 50, 1,4-Bis(2′-cyanoethoxy)-13-isopropyl-7,10a-dimethyl-6,6a,7,8,9,10,10a,10b,11,12-decahydro-5H-4b,12-ethenochrysene-7-carboxylic acid] | 230 ± 10 nM | 157 to 159 °C | 110 ± 2.6 µg/mL (≈ 213 µM) | 57.3 ± 1.2 µg/mL (≈ 111 µM) | 69.8 ± 1.5 µg/mL (≈ 135 µM) | 158 ± 4 µg/mL (≈ 305 µM) | 105.50 ± 2.2 µg/mL (≈ 204 µM) | > 256 µg/mL | > 256 µg/mL | 116 ± 6.93 µg/mL (≈ 224 µM) | > 256 µg/mL | 11 ± 0.83 µg/mL (≈ 21.3 µM) | 64 µg/mL (≈ 124 µM) | > 256 µg/mL | > 256 µg/mL | 11.3 ± 0.77 µg/mL (≈ 21.8 µM) | 64 µg/mL (≈ 124 µM) | > 256 µg/mL | > 256 µg/mL | > 256 µg/mL | MIC [8]: > 256 µg/mL
O=c1c(O)c(-c2ccc(O)c(O)c2)oc2cc(O)cc(O)c12 [Quercetin, reference compound] |  |  |  |  |  |  | 8.01 ± 0.15 µg/mL (≈ 26.5 µM) |  |  |  |  |  |  |  |  |  |  |  |  |  | 
